Structures can show the parent of a compound that is named as a salt.

From patent publication US20150344407A1, “FENDILINE DERIVATIVES AND METHODS OF USE THEREOF” (THE BOARD OF REGENTS OF THE UNIVERSITY OF TEXAS SYSTEM, priority 2012, published 2015) come the findings set out here.

The target of assay [1] is T1, GFP-tagged K-rasG12V (oncogenic K-ras) in MDCK cells (Homo sapiens, UniProt P01116, G12V).
T1 construct: mGFP-tagged full length oncogenic mutant K-Ras (GFP-K-RasG12V); expressed in transfected cells
As to the kind of experiment: K-ras mislocalization, confocal fluorescence microscopy with densitometric analysis. The assay is classed as cell-based, canine. The note with it: 48 hours, MDCK cells stably expressing GFP-tagged K-rasG12V, normalized to vehicle-treated control; for inhibition at 4 µM: 4 μM compound, read-out: % Mislocalization of K-ras when treated with 4 μM compound. As to the method:
FIGS. 1 & 2—Representative images showing degree of K-ras mislocalization with compound treatment (images corresponds with column 3 of Table 2). MDCK cells stably expressing GFP-tagged K-rasG12V were treated with vehicle or compound (4 μM) for 48 hours and fixed with 4% paraformaldehyde. The coverslips were mounted in Mowiol and imaged by confocal microscopy (Nikon A1) using a 60× objective. The number above each image corresponds the fendiline derivative code.
(§1) To determine the effect of compounds on localization of K-ras, Mardine Darby canine kidney epithelial (MDCK) cells stably expressing GFP-tagged K-rasG12V (oncogenic K-ras) grown on cover slips were treated with vehicle or compound (4 μM) for 48 hours and fixed with 4% paraformaldehyde. The coverslips were mounted in Mowiol and imaged by confocal microscopy (Nikon A1) using a 60× objective. Images were analyzed by ImageJ software. Densitometric analysis was performed on images to determine the degree of K-ras mislocalization. To determine the effect of compounds on K-ras function, MDCK cells stably expressing GFP-tagged K-rasG12V were treated with vehicle or compound (4 μM) for 48 hours. Following treatment, whole cell lysates were prepared and subjected SDS-PAGE and western blotting to quantify the level of phosphorylated ERK, a protein activated downstream of K-ras. All calculations were normalized to vehicle-treated control.
Fluorescence microscopy: 2×10^5 or 1×10^5 cells/well were seeded in 6- or 12-well cell culture plates, respectively, containing glass coverslips. 24 h after seeding, fresh medium containing 1% vehicle (Dimethyl sulfoxide, DMSO) or 4 μM test compound (1:100 dilution, such that DMSO was 1%) was added and incubated for 48 h, following which the cells were fixed with 4% paraformaldehyde and coverslips were mounted in Mowiol. Cells were imaged in the GFP wavelength (488 nm) using a confocal microscope (Nikon A1) with 60× objective. Images were saved in tagged imaged file format (tiff) and analyzed by ImageJ software. The densitometric ratio of plasma membrane localized K-Ras versus total K-Ras was calculated and normalized to vehicle-treated control.

Assay [2] concerns phosphorylated ERK, a protein activated downstream of K-ras. As to the kind of experiment: Western immunoblotting for pERK (inhibition of ERK activation). It is filed as cell-based, canine. To be noted: Canis lupus familiaris; 4 μM compound, 48 hours, MDCK cells stably expressing GFP-tagged K-rasG12V; whole cell lysates; normalized to vehicle-treated control; read-out: % Inhibition of ERK activation when treated with 4 μM compound. As to the method:
as §1
Western Immunoblotting for pERK: 2×10^5 cells/well were seeded in 6-well cell culture plates. 24 h after seeding, fresh medium containing 1% vehicle (DMSO) or 4 μM test compound (1:100 dilution, such that DMSO was 1%) was added and incubated for 48 h. Cells were lysed in Buffer B (50 mM Tris [pH 7.5], 75 mM NaCl, 25 mM NaF, 5 mM MgCl2, 5 mM EGTA, 1 mM dithiothreitol, 100 μM NaVO4, 1% Nonidet P-40 plus protease inhibitors). SDS-PAGE and immunoblotting with the anti-phospho-p44/42 mitogen-activated protein kinase (MAPK) (ERK1/2) antibody was performed using 20 μg of each whole cell lysate. Signal was detected by enhanced chemiluminescence (SuperSignal; Pierce, Thermo Fisher Scientific, Rockford, Ill.) and imaged by FluorChemQ (Alpha Inotech, San Leandro, Calif.). Quantification of intensities was performed using FluorChemQ software. Results were normalized to vehicle-treated control.

In the case of `CC(C(=O)NCC(c1ccccc1)c1ccccc1)c1ccccc1` (stereo not drawn) [Compound 02], the inhibition at 4 µM in assay [1] is 13.2%.

Turning to `C[C@@H](NC(=O)CC(c1ccccc1)c1ccccc1)c1ccccc1` [Compound 03, (R)-3,3-diphenyl-N-(1-phenylethyl)propanamide], the inhibition at 4 µM in assay [1] was found to be 25.8%.

Regarding `C[C@H](NC(=O)CC(c1ccccc1)c1ccccc1)c1ccccc1` [Compound 04, (S)-3,3-diphenyl-N-(1-phenylethyl)propanamide], the inhibition at 4 µM in assay [1] amounted to 9.73%.

With `O=C(CC(c1ccccc1)c1ccccc1)NCc1ccccc1` [Compound 05, N-benzyl-3,3-diphenylpropanamide], the inhibition at 4 µM in assay [1] is 4.01%.

For the compound `CC(NC(=O)CCc1ccccc1)c1ccccc1` (stereo not drawn) [Compound 06, 3-phenyl-N-(1-phenylethyl)propanamide], the inhibition at 4 µM in assay [1] stood at 28.9%.

As to `CC(CNCC(c1ccccc1)c1ccccc1)c1ccccc1` (stereo not drawn) [Compound 07, N-(2,2-diphenylethyl)-2-phenylpropan-1 amine hydrochloride], the inhibition at 4 µM in assay [1] stood at 21.9%.

As for `C[C@@H](NCCC(c1ccccc1)c1ccccc1)c1ccccc1.Cl` [Compound 08, (R)-3,3-diphenyl-N-(1-phenylethyl)propan-1-amine hydrochloride], in assay [2], the inhibition at 4 µM was 38.2%. Further, the “% Mislocalization of K-ras when treated with 4 μM compound” value in assay [1] amounted to 36.05%.

For `C[C@H](NCCC(c1ccccc1)c1ccccc1)c1ccccc1.Cl` [Compound 09, (S)-3,3-diphenyl-N-(1-phenylethyl)propan-1-amine hydrochloride], the “% Mislocalization of K-ras when treated with 4 μM compound” value in assay [1] is 20.41%.

Turning to `c1ccc(CNCCC(c2ccccc2)c2ccccc2)cc1` [Compound 10, N-benzyl-3,3-diphenylpropan-1-amine], the inhibition at 4 µM in assay [1] stood at 20.2%.

As for `CC(NCCCc1ccccc1)c1ccccc1` (stereo not drawn) [Compound 11, 3-phenyl-N-(1-phenylethyl)propan-1-amine hydrochloride], the inhibition at 4 µM in assay [2] worked out at 42.9%; in assay [1], 32.4%.

Regarding `CC(NCC=C(c1ccccc1)c1ccccc1)c1ccccc1` (stereo not drawn) [Compound 12, 3,3-diphenyl-N-(1-phenylethyl)prop-2-en-1-amine hydrochloride], the figures for the inhibition at 4 µM in assay [2] and in assay [1] were 55.1% and 37.7%, respectively.

Turning to `CC(OCCC(c1ccccc1)c1ccccc1)c1ccccc1` (stereo not drawn) [Compound 13], the inhibition at 4 µM in assay [2] came out at 28.9%; in assay [1] it was 32%.

With `CC(NC(=O)CC(c1ccccc1)c1ccccc1)c1cccs1` (stereo not drawn) [Compound 14, 3,3-diphenyl-N-(1-(thiophen-2-yl)ethyl)propanamide], the inhibition at 4 µM in assay [1] stood at 23.3%.

Turning to `CC(NCCC(c1ccccc1)c1ccccc1)c1cccs1` (stereo not drawn) [Compound 15, 3,3-diphenyl-N-(1-(thiophen-2-yl)ethyl)propan-1-amine hydrochloride], the inhibition at 4 µM in assay [1] was 25.1%.

For `C[C@@H](NCC=C(c1ccccc1)c1ccccc1)c1ccccc1` [Compound 16, (R)-3,3-diphenyl-N-(1-phenylethyl)prop-2-en-1-amine], the inhibition at 4 µM turned out to be 58.4% in assay [2] and 39.3% in assay [1].

On to `C[C@H](NCC=C(c1ccccc1)c1ccccc1)c1ccccc1` [Compound 17, (S)-3,3-diphenyl-N-(1-phenylethyl)prop-2-en-1-amine], for which the figures for the inhibition at 4 µM in assay [2] and in assay [1] were -51.9% and 8.27%, respectively.

On to `C[C@@H](NC/C=C/c1ccccc1)c1ccccc1` [Compound 18, (R,E)-3-phenyl-N-(1-phenylethyl)prop-2-en-1-amine], for which the values for the inhibition at 4 µM in assay [2] and in assay [1] were -2.54% and 17.6%, respectively.

With `C[C@H](NC/C=C/c1ccccc1)c1ccccc1` [Compound 19, (S,E)-3-phenyl-N-(1-phenylethyl)prop-2-en-1-amine], the inhibition at 4 µM was determined as 11.3% in assay [2] and 16.5% in assay [1].

In the case of `CC(C)=CCC/C(C)=C/CO[C@H](C)c1ccccc1` [Compound 20, (R,E)-(1-((3,7-dimethylocta-2,6-dien-1-yl)oxy)ethyl)benzene], the inhibition at 4 µM was -5.12% in assay [2] and 14.6% in assay [1].

In the case of `CC(C)=CCC/C(C)=C/CN[C@H](C)c1ccccc1` [Compound 21, (R,E)-3,7-dimethyl-N-(1-phenylethyl)octa-2,6-dien-1-amine], the inhibition at 4 µM in assay [2] is 3.75%; in assay [1], 8.29%.

With `C[C@@H](OCC=C(c1ccccc1)c1ccccc1)c1ccccc1` [Compound 22, (R)-(3-(1-phenylethoxy)prop-1-ene-1,1-diyl)dibenzene], the inhibition at 4 µM was -14.4% in assay [2] and 8.14% in assay [1].

Regarding `C[C@H](OCC=C(c1ccccc1)c1ccccc1)c1ccccc1` [Compound 23, (S)-(3-(1-phenylethoxy)prop-1-ene-1,1-diyl)dibenzene], the figures for the inhibition at 4 µM in assay [2] and in assay [1] were -0.95% and 10.3%, respectively.

For the compound `C[C@@H](OC/C=C/c1ccccc1)c1ccccc1` [Compound 24, (R,E)-(1-(cinnamyloxy)ethyl)benzene], the inhibition at 4 µM in assay [2] is 7.19%; in assay [1], 18%.

`C[C@H](OC/C=C/c1ccccc1)c1ccccc1` [Compound 25, (S,E)-(1-(cinnamyloxy)ethyl)benzene]: the inhibition at 4 µM in assay [2] worked out at 56.8%; in assay [1], 33.9%.

For the compound `CC(NCC=C(c1ccccc1)c1ccccc1)c1ccc(Br)cc1` (stereo not drawn) [Compound 26, N-(1-(4-bromophenyl)ethyl)-3,3-diphenylprop-2-en-1-amine], the inhibition at 4 µM came out at 43.5% in assay [2] and 44.8% in assay [1].

Consider `CC(NCC=C(c1ccccc1)c1ccccc1)c1ccc(F)cc1` (stereo not drawn) [Compound 27, N-(1-(4-fluorophenyl)ethyl)-3,3-diphenylprop-2-en-1-amine], for which the inhibition at 4 µM in assay [2] was determined as 49.3%; in assay [1], 45.2%.

As to `CC(C)=CCC/C(C)=C/CC/C(C)=C/CN[C@H](C)c1ccccc1` [Compound 28, (2E,6E)-3,7,11-trimethyl-N—((R)-1-phenylethyl)dodeca-2,6,10-trien-1-amine], the inhibition at 4 µM in assay [2] stood at 38%; in assay [1], 34.9%.

Regarding `CCC(NCC=C(c1ccccc1)c1ccccc1)c1ccccc1` (stereo not drawn) [Compound 29, 3,3-diphenyl-N-(1-phenylpropyl)prop-2-en-1-amine hydrochloride], the inhibition at 4 µM is 40.3% in assay [2] and 37% in assay [1].

For the compound `CC(CNCC=C(c1ccccc1)c1ccccc1)c1ccccc1` (stereo not drawn) [Compound 30, 3,3-diphenyl-N-(2-phenylpropyl)prop-2-en-1-amine], the inhibition at 4 µM in assay [2] was determined as 49.1%; in assay [1], 26.5%.

As to `C[C@@H](NC/C=C/c1ccc(-c2ccccc2)cc1)c1ccccc1` [Compound 31, (R,E)-3-([1,1′-biphenyl]-4-yl)-N-(1-phenylethyl)prop-2-en-1-amine], the results for the inhibition at 4 µM in assay [2] and in assay [1] were 35.6% and 6.36%, respectively.

For `C[C@@H](NC/C=C/c1cccc2ccccc12)c1ccccc1` [Compound 32, (R,E)-3-(naphthalen-1-yl)-N-(1-phenylethyl)prop-2-en-1-amine], the inhibition at 4 µM was 31.7% in assay [2] and 12.5% in assay [1].

Consider `C[C@@H](NC/C=C/c1ccc2ccccc2c1)c1ccccc1` [Compound 33, (R,E)-3-(naphthalen-2-yl)-N-(1-phenylethyl)prop-2-en-1-amine], for which the figures for the inhibition at 4 µM in assay [2] and in assay [1] were 15.7% and 1.53%, respectively.
